The text below walks through data of US9180187B2, “Medicament for treating and/or preventing cancer” (TORAY INDUSTRIES, INC., priority 2010, dated 2015).

Where two headings read alike, the source gives them in different places.

For series [1], the system named is MCF-7 human breast cancer cell line. The series can be described thus: 50% inhibitory concentration of antitumor agents, living cell count with trypan blue. It is filed as cell-based. The note with it: MCF7, 48 h, read-out: 50% inhibitory concentration of antitumor agents against MCF-7.
Description: The cell line was prepared to 1×10^5 cells/ml and then cultured on a 6-well plate under conditions of 37° C. and 5% CO2 for one day. Then, the cell was treated with each antitumor agent at final concentrations of 0.001 μM, 0.01 μM, 0.1 μM, 1.0 μM, and 10 μM, followed by 2-days culture under conditions of 37° C. and 5% CO2. After removal of the culture medium, the cell was washed twice with PBS(−), to which 0.25% Trypsin-EDTA was then added in order to detach the cell from the plate. The thus detached cell was suspended with PBS(−) to a volume of 100 to which 10 μl of 0.4% trypan blue stock solution was then added, and the mixture was measured for counts of living cells using a hemocytometer. The rate of living cells in case that the cell was treated with each antitumor agent (i.e., a chemotherapeutic) was calculated, wherein the number of living cells in case that the cell was not treated with each antitumor agent was designated at 100%. 50% inhibitory concentration was roughly estimated based on the obtained values, and each antitumor agent was prepared to have a concentration around the determined 50% inhibitory concentration, and thereafter procedures similar to the above were further performed in order to calculate a more specific 50% inhibitory concentration.
MCF-7 cell line was prepared to 1×10^5 cells/mL, and then cultured on a 6-well plate under conditions of 37° C. and 5% CO2 for one day. […] After removal of the culture medium, the cell was washed with PBS(−) twice, to which 0.25% Trypsin-EDTA was added in order to detach the cell from the plate. The detached cell was suspended in PBS(−) to a volume of 100 μl, to which 10 μl of 0.4% trypan blue stock solution was further added. The mixture was measured for counts of living cells using a hemocytometer. […] The IC50 values of respective antitumor agents in each type of cancer cells were calculated by using the same procedures.
Series [2] deals with human breast cancer cell line MDA-MB-157. The series can be described thus: ADCC activity, chromium-51 release. Type of series: cell-based. The note with it: 1 μg antibody, mouse lymphocytes 2×10^5 cells, 10^3 target cells, 4 hours. The method, then:
The above-selected anti-CAPRIN-1 monoclonal antibodies #1 to #11 were evaluated for their cytotoxic activities against cancer cells (ADCC activity). Hybridomas producing the monoclonal antibodies #1 to #11 were each cultured using hybridoma SFM medium (Invitrogen). The thus obtained supernatant was purified using Hitrap ProteinA Sepharose FF (GE HealthCare), replaced with PBS(−), and then filtered through 0.22 μm filter (Millipore). The obtained filtrates were used as antibodies for assay. The human breast cancer cell line MDA-MB-157 (10^6 cells) was collected in a 50-ml centrifuge tube, to which 100 μCi chromium(Cr)-51 was then added, and incubated at 37° C. for 2 hours. Subsequently, the cells were washed 3 times with RPMI1640 medium containing 10% FBS, and then dispensed into each well of a 96-well V-bottom plate at 10^3 cells per well. The thus obtained cells are used as target cell. The above purified antibodies (1 μg each) were added to the cells. Separately, mouse lymphocytes separated from the mouse spleen were further added (2×10^5 cells) and then cultured under conditions of 37° C. and 5% CO2 for 4 hours. After culture, the amount of chromium(Cr)-51 released from cytotoxically impaired tumor cells in a culture supernatant was measured, so that the ADCC activity of each anti-CAPRIN-1 antibody against cancer cells was calculated. […] On the other hand, similar procedures were performed using the monoclonal antibodies (which were prepared in Example 2) reactive with the CAPRIN-1 protein itself, but not reactive with the surface of cancer cells, no cytotoxic activity was observed (see FIG. 1). […] Similarly, the anti-CAPRIN-1 antibodies were examined for ADCC activity against other human cancer cell lines including glioma cell lines (T98G and U373), lung cancer cell lines (A549 and QG56), renal cancer cell lines (Caki-1 and ACHN), a uterine cervix cancer cell line (SW756), a bladder cancer cell line (T24), an esophageal cancer cell line (KYSE180), gastric cancer cell lines (MNK28 and MNK45), a colorectal cancer cell line (SW480), a leukemia cell line (AML5), and a lymphoma cell line (Ramos).

Series [3] relates to MCF-7 human breast cancer cell line. Nature of the series: In vivo combination therapy in tumor-bearing nude mice transplanted with MCF-7. Particulars: experimental section 1 (anti-CAPRIN-1 antibody = #2, 5 mg/kg i.p.), day 26, mouse PBMC given to all groups. How it is done:
IgG2b (R&D systems, catalog No. MAB11291)) were administered in combination, a group to which an antitumor agent and anti-CAPRIN-1 monoclonal antibody were administered in combination, and a group to which control (PBS(−) was administered. In addition, mouse PBMC was administered to all the administration groups. […] PBMC separated from Balb/c mouse spleen was intravenously administered to each mouse at 1×10^7 cells/0.2 mL (RPMI1640) on days 0, 8, and 15 after the start of the experiment. […] PBMC separated from Balb/c mouse spleen was intravenously administered to each mouse at 1×10^7 cells/0.2 mL (RPMI1640) on days 0, 8, and 15 after the start of the experiment. Paclitaxel was intraperitoneally administered to each of 5 tumor-bearing mice at 15 mg/kg/shot on days 0 and 3 after the start of the experiment. PBMC separated from Balb/c mouse spleen was intravenously administered to each mouse at 1×10^7 cells/0.2 mL (RPMI1640) on days 0, 8, and 15 after the start of the experiment. Docetaxel was intraperitoneally administered to each of 5 tumor-bearing mice at 10 mg/kg/shot on days 0 and 3 after the start of the experiment. PBMC separated from Balb/c mouse spleen was intravenously administered to each mouse at 1×10^7 cells/0.2 mL (RPMI1640) on days 0, 8, and 15 after the start of the experiment. […]

The mark [4] stands for this setting: MCF-7, 2-days culture with agent, living cells counted with trypan blue.

In the case of `CCC1=C[C@@H]2CN(C1)Cc1c([nH]c3ccccc13)[C@@](C(=O)OC)(c1cc3c(cc1OC)N(C)[C@H]1[C@@](O)(C(=O)OC)[C@H](OC(C)=O)[C@]4(CC)C=CCN5CC[C@]31[C@@H]54)C2` [Vinorelbine, vinorelbine], the IC50 in series [1] (setting [4]) amounted to 20 nM. Same read-out and setting: the figure for `CC(=O)O[C@H]1C(=O)[C@@]2(C)[C@H]([C@H](OC(=O)c3ccccc3)[C@]3(O)C[C@H](OC(=O)[C@H](O)[C@@H](NC(=O)c4ccccc4)c4ccccc4)C(C)=C1C3(C)C)[C@]1(OC(C)=O)CO[C@@H]1C[C@@H]2O` [Paclitaxel, paclitaxel] is 10 nM. Regarding `O=P1(N(CCCl)CCCl)NCCCO1` (centres unmarked) [Cyclophosphamide, cyclophosphamide], the IC50 in series [1] came to 30 nM. Take `CC(=O)O[C@@]12CO[C@@H]1C[C@H](O)[C@@]1(C)C(=O)[C@H](O)C3=C(C)[C@@H](OC(=O)[C@H](O)[C@@H](NC(=O)OC(C)(C)C)c4ccccc4)C[C@@](O)([C@@H](OC(=O)c4ccccc4)[C@H]21)C3(C)C` [Docetaxel, docetaxel]: in series [1] (setting [4]), the IC50 was determined as 0.1 nM.

B1: monoclonal antibody #1: mouse anti-CAPRIN-1 monoclonal antibody; heavy chain variable region SEQ ID NO: 43, light chain variable region SEQ ID NO: 47 (antibody, listed as Mus musculus, V domains shown)
VH: MEWSGVFIFLLSGTAGVLSEVQLHQFGAELVKPGASVKISCKASGYTFTDYNMDWVKQSHGKSLEWIGDINPNYDSTSYNQKFKGKATLTVDKSSSTAYMELRSLTSEDTAVYYCARSRSYDYEGFAYWGQGTLVTVSAAKTTPPSVY
VL: MSVLTQVLGLLLLWLTGARCDIQMTQSPASLSASVGETVTITCRASGNIHNYLAWYQQKQGKSPQLLVYNAKTLADGVPSRFSGSGSGTQYSLKINSLQPEDFGSYYCQHFWSTLTFGAGTKLELKRADAAPTVSNPYD
B1: in series [2], the “ADCC activity (cytotoxic activity) against MDA-MB-157” value (“ADCC activity (cytotoxic activity)” for short) is 22.1%.

B2: monoclonal antibody #2: mouse anti-CAPRIN-1 monoclonal antibody; heavy chain variable region SEQ ID NO: 43, light chain variable region SEQ ID NO: 53 (antibody, listed as Mus musculus, V domains shown)
VH: B1 VH
VL: AVLRCSRGLLVIWISDIQLTQSPSSLAVTAGEKVTMSCKSSQSLLWSVNQKNYLSWYQQKQRQPPKLLIYGASIRESWVPDRFTGSGSGTDFTLTISNVHAEDLAVYYCQHNHGSFLPSRSEQVPSWRSNNR
For B2, the “ADCC activity (cytotoxic activity)” value in series [2] stood at 29.1%. Besides, the “tumor volume relative to PBS(−) control group designated at 100%” value in series [3] is on record as “about 56%”.

B3: monoclonal antibody #6: mouse anti-CAPRIN-1 monoclonal antibody; heavy chain variable region SEQ ID NO: 73, light chain variable region SEQ ID NO: 77 (antibody, listed as Mus musculus, V domains shown)
VH: DILQASGYSFTGYTMNWVKQSHGKNLEWIGLINPYNGGTSYNQKFKGKATLTVDKSSSTAYMELLSLTSEDSAVYYCARWGVWSAMDYWGQGTTVTVSSK
VL: DRVSITCKASQNVRTAVAWYQQKPRQSPKALIYLASNRDTGLPDRFPGRGSGTDFTLNITNVQSEDLEDYFCLQHCNYPNEFRGCTKVPI
B3: in series [2], the “ADCC activity (cytotoxic activity)” value is given as 30.2%.
